Measurements published in ChEMBL document CHEMBL1201862, “PubChem BioAssay data set” (2004).
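Growth conditions: 96-well plates. Treatment: test compound, 48 hours, 5 concentrations. Analysis: linear interpolation between bracketing concentrations; unreached endpoints set to highest concentration. GI50: concentration for 50% inhibition of growth.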 The source made the active and inactive calls. Cut-off read from the data, not from the text of the source: active = GI50 up to about 1.1 µM and inactive = higher.

Tests used:
Test in all cases: NCI anticancer screen, dose series, 48 h
786-0 = system: 786-0
CCRF-CEM = system: CCRF-CEM
SNB-75 = system: SNB-75
Hs-578T = system: Hs-578T
NCI-H522 = system: NCI-H522
SF-295 = system: SF-295
OVCAR-8 = system: OVCAR-8
UO-31 = system: UO-31
HOP-92 = system: HOP-92
EKVX = system: EKVX
NCI-H23 = system: NCI-H23
SK-MEL-5 = system: SK-MEL-5
HOP-62 = system: HOP-62
A498 = system: A498
UACC-257 = system: UACC-257
SK-MEL-28 = system: SK-MEL-28
HT-29 = system: HT-29
SF-539 = system: SF-539
BT-549 = system: BT-549

SMILES	GI50 (786-0)	GI50 (CCRF-CEM)	GI50 (SNB-75)	GI50 (Hs-578T)	GI50 (NCI-H522)	GI50 (SF-295)	GI50 (OVCAR-8)	GI50 (UO-31)	GI50 (HOP-92)	GI50 (EKVX)	GI50 (NCI-H23)	GI50 (SK-MEL-5)	GI50 (HOP-62)	GI50 (A498)	GI50 (UACC-257)	GI50 (SK-MEL-28)	GI50 (HT-29)	GI50 (SF-539)	GI50 (BT-549)
CC1(C)C(N2CCOCC2)CS1(=O)=O (stereo not drawn)	> 10 µM (inactive)	> 10 µM (inactive)	4.98 µM (inactive)	> 10 µM (inactive)	> 10 µM (inactive)	> 10 µM (inactive)	> 10 µM (inactive)	> 10 µM (inactive)	> 10 µM (inactive)	> 10 µM (inactive)	> 10 µM (inactive)	> 10 µM (inactive)	> 10 µM (inactive)	> 10 µM (inactive)	> 10 µM (inactive)	> 10 µM (inactive)	> 10 µM (inactive)	> 10 µM (inactive)	> 10 µM (inactive)
O=c1[nH]c(=O)n(C2CC(O)C(CO)O2)c2nc3cc4ccccc4cc3nc12 (stereo not drawn)	> 100 µM (inactive)	36.6 µM (inactive)	74.8 µM (inactive)	> 100 µM (inactive)	> 100 µM (inactive)	75.2 µM (inactive)	54.3 µM (inactive)	> 100 µM (inactive)	79.1 µM (inactive)	> 100 µM (inactive)	> 100 µM (inactive)	> 100 µM (inactive)	33.9 µM (inactive)	> 100 µM (inactive)	> 100 µM (inactive)	> 100 µM (inactive)		> 100 µM (inactive)	> 100 µM (inactive)
CCOC(=O)C(=O)C(CCC(=O)c1ccc2ccccc2c1O)C(=O)OCC (stereo not drawn)	> 100 µM (inactive)	> 100 µM (inactive)	> 100 µM (inactive)	> 100 µM (inactive)	> 100 µM (inactive)	> 100 µM (inactive)	> 100 µM (inactive)	> 100 µM (inactive)	> 100 µM (inactive)	> 100 µM (inactive)	> 100 µM (inactive)	> 100 µM (inactive)		> 100 µM (inactive)	> 100 µM (inactive)	> 100 µM (inactive)	> 100 µM (inactive)	> 100 µM (inactive)	> 100 µM (inactive)
COC(=O)c1ccc2c(c1)CC1(C2)Cc2cc3c(c(C(=O)OC)c2C1)CCCC3 (stereo not drawn)	64.1 µM (inactive)	48.6 µM (inactive)	77.6 µM (inactive)	> 100 µM (inactive)	> 100 µM (inactive)	50 µM (inactive)	> 100 µM (inactive)	> 100 µM (inactive)	22.4 µM (inactive)	60 µM (inactive)	65.5 µM (inactive)	21.2 µM (inactive)	> 100 µM (inactive)	32.5 µM (inactive)	48.4 µM (inactive)	> 100 µM (inactive)	55.7 µM (inactive)	> 100 µM (inactive)	> 10 µM (inactive)
C/C(=N\NC(=S)NC(C)(C)C)c1nc2cccnc2[nH]1	3.02 µM (inactive)	0.955 µM (active)	16.3 µM (inactive)	3.36 µM (inactive)	4.53 µM (inactive)	2.8 µM (inactive)	1.5 µM (inactive)	1.06 µM (active)	1.47 µM (inactive)	2.5 µM (inactive)	8.26 µM (inactive)	2.21 µM (inactive)	6.15 µM (inactive)	18.6 µM (inactive)	3.09 µM (inactive)	8.71 µM (inactive)	1.71 µM (inactive)	3.21 µM (inactive)	2.55 µM (inactive)
CN(C)P(=O)(Oc1ccc(CC(NC(=O)OCc2ccccc2)C(=O)OCc2ccccc2)cc1)N(C)C (stereo not drawn)	4.94 µM (inactive)	2.43 µM (inactive)	17.2 µM (inactive)	24.4 µM (inactive)	13.9 µM (inactive)	18.2 µM (inactive)	15.9 µM (inactive)	18.5 µM (inactive)	17.8 µM (inactive)	15.7 µM (inactive)	14.1 µM (inactive)	20.7 µM (inactive)	17.1 µM (inactive)	19.4 µM (inactive)	21.4 µM (inactive)	16.8 µM (inactive)	10.1 µM (inactive)	22.3 µM (inactive)	17.1 µM (inactive)
O=C1c2c(F)c(F)c(F)c(F)c2SC2=NCCN12	7.26 µM (inactive)	2.39 µM (inactive)	16 µM (inactive)	14.2 µM (inactive)	2.82 µM (inactive)	17.5 µM (inactive)	11.5 µM (inactive)	10.1 µM (inactive)	3.78 µM (inactive)	19.3 µM (inactive)	5.42 µM (inactive)	14.8 µM (inactive)	18.1 µM (inactive)	18.4 µM (inactive)	8.57 µM (inactive)	9.38 µM (inactive)	3.18 µM (inactive)	16.3 µM (inactive)	14.8 µM (inactive)
O=C1CC[N+]2=Cc3ccccc3O[B-]2(c2ccccc2)O1 (stereo not drawn)	> 100 µM (inactive)	> 100 µM (inactive)	67.1 µM (inactive)	> 100 µM (inactive)	> 100 µM (inactive)	> 100 µM (inactive)	> 100 µM (inactive)	> 100 µM (inactive)	21.5 µM (inactive)	> 100 µM (inactive)	> 100 µM (inactive)	97.7 µM (inactive)	> 100 µM (inactive)	> 100 µM (inactive)	> 100 µM (inactive)	> 100 µM (inactive)	> 100 µM (inactive)	> 100 µM (inactive)	> 100 µM (inactive)
C[n+]1c(-c2ccc(/C=N/Nc3ccnc(N/N=C/c4ccc(-c5cn6ccsc6[n+]5C)cc4)n3)cc2)cn2ccsc21	15.8 µM (inactive)	14.9 µM (inactive)	20 µM (inactive)	69.5 µM (inactive)	92.7 µM (inactive)		28.9 µM (inactive)	18.8 µM (inactive)	31.5 µM (inactive)	18.8 µM (inactive)	22.9 µM (inactive)	19.3 µM (inactive)	25.9 µM (inactive)	27.9 µM (inactive)	25.5 µM (inactive)		16.9 µM (inactive)	27 µM (inactive)	36.1 µM (inactive)
CC(=O)O[C@H]1C(=O)[C@@]2(C)[C@H]([C@H](OC(=O)c3cccc(C(F)(F)F)c3)[C@]3(O)C[C@H](OC(=O)[C@H](O)[C@@H](NC(=O)c4ccccc4)c4ccccc4)C(C)=C1C3(C)C)[C@]1(OC(C)=O)CO[C@@H]1C[C@@H]2O	0.00439 µM (active)	< 0.0025 µM (active)	0.00434 µM (active)	< 0.0025 µM (active)	< 0.0025 µM (active)	0.0387 µM (active)	0.00252 µM (active)	0.918 µM (active)	0.52 µM (active)		0.0115 µM (active)	< 0.0025 µM (active)	0.0162 µM (active)	0.131 µM (active)	0.108 µM (active)	1.89 µM (inactive)	< 0.0025 µM (active)	< 0.0025 µM (active)	0.035 µM (active)
COC(=O)CC1c2ccccc2N2C(=O)Cc3c([nH]c4ccccc34)C12 (stereo not drawn)	58.6 µM (inactive)	> 100 µM (inactive)	> 100 µM (inactive)	25.4 µM (inactive)	> 100 µM (inactive)	7.93 µM (inactive)	> 100 µM (inactive)	> 100 µM (inactive)	55.8 µM (inactive)	> 100 µM (inactive)	> 100 µM (inactive)	> 100 µM (inactive)	36.5 µM (inactive)	> 100 µM (inactive)	> 100 µM (inactive)	> 100 µM (inactive)	> 100 µM (inactive)		> 100 µM (inactive)
